Results on 2 compounds are retold here after patent US6702987B1, “Bioactive porous partition members” (Dade Behring Inc., priority 1994, dated 2004).

Data set [1] in a line: Storage stability of agent incorporated in porous partition member and dried. It is filed as physicochemical. As for the experimental part: ADP is unstable in aqueous solution having a useful life of only about 4 hours.
Epinephrine is sensitive to aspirin induced defects in platelets.
The concentration of ADP solution used for incorporation into the membrane was 50 mg/ml, and that of the epinephrine solution was 10 mg/ml.
A strip of membrane was spot-coated with 1 μL of ADP or epinephrine solution. Therefore, each membrane placed in the Test Cartridge contained 50 μg of ADP or 10 μg of epinephrine. The membrane was then spot-coated with 1 μL of fibrillar Type I collagen suspension from horse tendon available from Nycomed AG.
Spot-coating involved putting spots of liquid agent on a strip of membrane. After spot-coating, the membrane was placed in a forced air drying chamber for 25 minutes for drying of the ADP or epinephrine, and formation of a collagen film on the coated areas. Once dried, an aperture was punched in the center of the spot and a membrane disk was cut from the membrane strip.

For data set [2] the following is noted: cited from earlier work.

With `CNC[C@H](O)c1ccc(O)c(O)c1` [epinephrine], the “stability when incorporated in a porous partition member and dried” value in data set [1] (incorporated in porous partition member and dried) is “good stability”. Moreover, the stability in solution entry in data set [2] (in solution) is reported as “unstable”.

In the case of `Nc1ncnc2c1ncn2[C@@H]1O[C@H](COP(=O)(O)OP(=O)(O)O)[C@@H](O)[C@H]1O` [ADP, adenosine 5′-diphosphate], the “stable when incorporated in a porous partition member” value in data set [1] (incorporated in porous partition member, dried, stored at about 4° C. under hermetically sealed conditions) is “about one and one-half”. Moreover, in data set [2] (aqueous solution), the “useful life in aqueous solution” value is on record as “about 4 hours”.
